In brackets after ≈: the same amount, converted by molar mass.
Tests used:
Type in all cases: cell-based
Pseudomonas aeruginosa = test: Antimicrobial assay, Example 1
Procedure: The purpose of this study was to study the antimicrobial activity of peptides against common pathogens in vitro. Antimicrobial assays were performed to assess peptide activity against Pseudomonas aeruginosa. […]

[1] = tested on: Pseudomonas aeruginosa (PA)
Procedure: (§1) Antimicrobial assays were performed to assess peptide activity against Pseudomonas aeruginosa (PA), Staphylococcus aureus ([…]), and Staphylococcus epidermidis (SE).

Staphylococcus aureus [2] = test: Antimicrobial assay, Example 2
Procedure: as §1

[3] = tested on: Staphylococcus epidermidis (SE); test: Antimicrobial assay, Example 2
Procedure: as §1

Staphylococcus aureus [4] = test: Antimicrobial activity, Example 3
Escherichia coli = test: Antimicrobial activity, Example 3

`CC[C@H](C)[C@H](NC(=O)[C@H](CCC(=O)O)NC(=O)[C@H](C)NC(=O)[C@H](CCSC)NC(=O)[C@H](CC(=O)O)NC(=O)[C@@H]1CCCN1C(=O)[C@H](CCCCN)NC(=O)[C@H](CC(=O)O)NC(=O)[C@H](CO)NC(C)=O)C(=O)N[C@@H](CCC(=O)O)C(=O)N[C@@H](CCCCN)C(=O)N[C@@H](Cc1ccccc1)C(=O)N[C@@H](CC(=O)O)C(=O)N[C@@H](CCCCN)C(=O)N[C@@H](CO)C(=O)N[C@@H](CCCCN)C(=O)N[C@@H](CC(C)C)C(=O)N[C@@H](CCCCN)C(=O)N[C@@H](CCCCN)C(=O)N[C@H](C(=O)N[C@@H](CCC(=O)O)C(=O)N[C@H](C(=O)N[C@@H](CCC(N)=O)C(=O)N[C@@H](CCC(=O)O)C(=O)N[C@@H](CCCCN)C(=O)N[C@@H](CC(N)=O)C(=O)N1CCC[C@H]1C(=O)N[C@@H](CC(C)C)C(=O)N1CCC[C@H]1C(=O)N[C@@H](CO)C(=O)N[C@@H](CCCCN)C(=O)N[C@@H](CCC(=O)O)C(=O)N[C@H](C(=O)N[C@H](C(=O)N[C@@H](CCC(=O)O)C(=O)N[C@@H](CCC(N)=O)C(=O)N[C@@H](CCC(=O)O)C(=O)N[C@@H](CCCCN)C(=O)N[C@@H](CCC(N)=O)C(=O)N[C@@H](C)C(=O)NCC(=O)N[C@@H](CCC(=O)O)C(=O)N[C@@H](CO)C(=O)O)[C@@H](C)CC)[C@@H](C)O)[C@@H](C)O)[C@@H](C)O` [Tβ4, thymosin β4] was tested, and the “lowest dose where activity and/or protection was demonstrated” value (Pseudomonas aeruginosa; against Pseudomonas aeruginosa) was 0.5 to 1 µg/mL, the “EC50 against Pseudomonas aeruginosa” value (Pseudomonas aeruginosa; in vitro) was 26.5 ± 1.6 µg/mL (≈ 5.34 µM) and the “EC50 against PA” value [1] was 18.1 ± 1.7 µg/mL (≈ 3.65 µM). The “effectiveness against staphylococcal strains” value (Staphylococcus aureus [2]) was “weakly effective”, the “effectiveness against staphylococcal strains” value [3] was “weakly effective” and the “concentrations showing antimicrobial activity” value (Staphylococcus aureus [4]) was 5-20 n mol/ml. The “concentrations showing increasingly dose-dependent activity” value (Staphylococcus aureus [4]) was 50-200 n mol/ml, the “concentrations showing antimicrobial activity” value (Escherichia coli) was 5-20 n mol/ml and the “concentrations showing increasingly dose-dependent activity” value (Escherichia coli) was 50-200 n mol/ml.
